Results on six molecules are retold here after US20260250325A1, “Antiviral Polypeptide Membrane Fusion Inhibitor, and Preparation Method and Application Thereof” (priority 2025, published 2026).

Data set [1] in a line: Cytotoxicity test in HEp-2 cells (CCK8 cell viability). The format is cell-based. Particulars: human. How it is done: (§1) Human Epithelial Pharyngeal Carcinoma Cells (HEp-2) were from the American Type Culture Collection (ATCC), with a catalog number CCL-23. The cells were cultured in a DMEM culture solution in which 10% fetal bovine serum, 1% sodium pyruvate, 1% nonessential amino acids, 2 mM glutamine, 100 U/mL penicillin, and 100 μg/mL streptomycin were added. The RSV A long virus strain was from the ATCC, with a catalog number VR-26.
A cytotoxicity test and an antiviral test were performed in parallel. The HEp-2 cells were inoculated in the microplate at a density of 30,000 cells per well, and cultured overnight in the 37° C. incubator with 5% CO2. On the next day, the diluted test sample was added. The cell control (cells, without compound treatment) and a culture solution control (culture solution only, without cell or compound treatment) were set. A final concentration of DMSO in the culture solution was 0.5%. The cells were cultured for 1 day in the 37° C. incubator with 5% CO2. Cell viability was detected by using a cell viability detection kit CCK8.
(§2) The raw data for plaque counts and cell viability tests were used for analyzing the antiviral activity and cytotoxicity of the test samples, respectively. A calculation formula was shown as follows.
cell survival rate=(sample value-culture medium control average value)/(cell control average value-culture medium control average value)×100
(§3) Non-linear fitting analysis was performed on the inhibition rate of the sample by using GraphPad Prism (version 10), so as to calculate the IC50 and CC50 values for the sample.
CC50: in the in-vitro antiviral activity experiment, CC50 was used to measure the toxicity of the compound to be tested to the Hep-2 cells. To be precise, when the compound to be tested was at a specific concentration, 50% of the Hep-2 cells was caused to die, and this concentration was defined as the CC50. A fitting formula was log (inhibitor) vs. response-Variable slope (four parameters).

Data set [2] deals with RSV A long virus strain. The format is cell-based. How it is done:
In this embodiment, an RSV-A long virus strain was used as an infection virus in the present disclosure. The anti-RSV activity of the synthesized polypeptide was determined through CPE detection.
The inhibitory activity of the compounds of Table 1-1-Table 1-5, positive polypeptide in Table 1-11, and positive control T-118 against the RSV-A long virus strain was detected.
as §1
This study used a plaque reduction experiment to detect the in-vitro activity of a test sample against the RSV A long virus strain. The test sample and a control compound were tested at 8 concentrations in duplicated wells. The HEp-2 cells were digested with trypsin and then diluted to a concentration of 300,000 cells per milliliter by using an experimental culture solution. The diluted cells were added to a 96-well cell test board, with 100 μL per well, corresponding to 30000 cells per well. The cells were cultured overnight in a 37° C. incubator with 5% CO2. On the second day, the test sample was diluted in an experimental culture medium at a fold ratio. The sample diluted at a fold ratio and an equal volume of virus (100 PFU per well) were well mixed and incubated at 37° C. in 5% CO2 for 1 h. Then, the culture solution in the 96-well cell test board was discarded, the sample virus mixed solution (200 μL) was added to the 96-well cell culture plate, and incubated at 37° C. in 5% CO2 for 2 hours. After 2 h, the sample virus mixed solution was discarded, and 200 μL of maintenance culture medium containing 0.8% CMC and the corresponding concentration of the test sample was added. A cell control (cells, without compound treatment or viral infection) and a viral control (cell infection virus, without compound treatment) were set. The cells were cultured for 1 day in the 37° C. incubator with 5% CO2. One day after viral infection, the culture medium was discarded, the cells were fixed with 4% paraformaldehyde, and then permeabilization was performed with 0.5% Triton X-100. After the plate was washed with DPBS, an RSV-specific antibody (RSV antibody, diluted 1:3000) was added and incubated at 37° C. for 1 h. Then, a secondary antibody (donkey anti-goat IgG, diluted 1:500) and incubated at 37° C. for 1 h. The secondary antibody was discarded, a TrueBlue solution was added, dyeing was performed for 10 min; and the plate was washed with running water and then air-dried, and the number of spots in each well was counted by using a microplate imaging counter. Raw data was used for calculating the antiviral activity of the samples.
as §2
% inhibition rate=100−(sample value-cell control average value)/(virus control average value-cell control average value)×100%
as §3
IC50: in an in-vitro antiviral activity experiment, IC50 represented an inhibition ability indicator of a compound to be tested against the Hep-2 cells infected by the RSV A long virus strain.

The mark [3] stands for this setting: HEp-2 cells, CCK8, 1 day, read-out: CC50.
Where [4] appears, read: RSV A long virus strain, HEp-2 cells, plaque reduction, 1 day, read-out: IC50.

Read-outs that look alike come from different tables or passages of the source. Where a SMILES comes first, the peptide text is derived from it. The star is where a group is joined. X1 = CC(C)CCCC(C)C1CCC2C3CC=C4CC(OC(=O)CCC(=O)*)CCC4(C)C3CCC12C

One may read the CC50 as the concentration giving 50% cytotoxicity. Usually IC50 stands for the concentration needed to halve the response being measured. For `CC[C@H](C)[C@H](NC(C)=O)C(=O)N[C@@H](CC(C)C)C(=O)N[C@@H](CCC(=O)O)C(=O)N[C@@H](CC(C)C)C(=O)N[C@H](C(=O)N[C@@H](CC(N)=O)C(=O)N[C@@H](CCCCN)C(=O)N[C@@H](CCCCN)C(=O)N[C@H](C(=O)N[C@@H](CCC(=O)O)C(=O)N[C@@H](CCC(N)=O)C(=O)N[C@@H](CO)C(=O)N[C@@H](CC(C)C)C(=O)N[C@@H](CCCCN)C(=O)N[C@@H](Cc1ccccc1)C(=O)N[C@H](C(=O)N[C@@H](CCC(=O)O)C(=O)N[C@@H](CCCCN)C(=O)N[C@@H](CO)C(=O)N[C@@H](CC(=O)O)C(=O)N[C@@H](CCCCN)C(=O)N[C@@H](CC(C)C)C(=O)N[C@@H](CC(C)C)C(=O)N[C@@H](CCC(=O)O)C(=O)N[C@@H](CC(N)=O)C(=O)N[C@@H](CCC(=O)O)C(=O)N[C@@H](C)C(=O)N[C@@H](C)C(=O)N[C@@H](C)C(=O)N[C@@H](CCCCN)C(=O)N[C@@H](CCCCNC(=O)CCC(=O)OC1CCC2(C)C(=CCC3C2CCC2(C)C(C(C)CCCC(C)C)CCC32)C1)C(N)=O)[C@@H](C)CC)[C@@H](C)CC)C(C)C` (stereo partly drawn) [Compound 32] (Ac-ILELVNKKIEQSLKFIEKSDKLLENEAAAKK(X1)-NH2), the CC50 at 1 day in data set [1] (setting [3]) was more than 8 µM. Also, in data set [2] (setting [4]), the IC50 worked out at 296 nM.

The molecule `CC[C@H](C)[C@H](NC(=O)[C@H](CCCCN)NC(=O)[C@H](CC(C)C)NC(=O)[C@H](CC(C)C)NC(=O)[C@H](CO)NC(=O)[C@H](C)NC(=O)[C@H](CC(=O)O)NC(=O)[C@H](Cc1ccccc1)NC(C)=O)C(=O)N[C@@H](CCC(=O)O)C(=O)N[C@@H](CCC(=O)O)C(=O)N[C@@H](CCC(=O)O)C(=O)N[C@@H](CCCCN)C(=O)N[C@@H](CCCCN)C(=O)N[C@@H](CCCCN)C(=O)N[C@H](C(=O)N[C@@H](CCC(=O)O)C(=O)N[C@@H](CCC(=O)O)C(=O)N[C@@H](CC(C)C)C(=O)N[C@@H](CC(C)C)C(=O)N[C@@H](CCCCN)C(=O)N[C@@H](CC(C)C)C(=O)N[C@@H](Cc1c[nH]cn1)C(=O)N[C@@H](CC(N)=O)C(=O)N[C@@H](CCC(=O)O)C(=O)N[C@@H](CO)C(=O)N[C@@H](CC(=O)O)C(=O)N[C@@H](CCCCN)C(=O)N[C@@H](CCCCN)C(=O)N[C@@H](CC(C)C)C(=O)N[C@@H](CCC(=O)O)C(=O)N[C@@H](CCC(=O)O)C(=O)N[C@H](C(N)=O)C(C)C)[C@@H](C)CC` [Compound 4] (Ac-FDASLLKIEEEKKKIEELLKLHNESDKKLEEV-NH2) showed a CC50 at 1 day in data set [1] of more than 8 µM. The molecule further returned an IC50 in data set [2] of more than 8000 nM.

“Ac-WDEFDKKIEEVNKKIEESLKKIEESDKKLEEVNKKLEAAAKK(X1)-NH2 [Compound 9]”: the CC50 at 1 day in data set [1] (setting [3]) is more than 8 µM. The IC50 in data set [2] (setting [4]) turned out to be 95.7 nM.

On to `CC[C@H](C)[C@H](NC(=O)[C@H](CCCCN)NC(=O)[C@H](CCCCN)NC(=O)[C@H](CC(N)=O)NC(=O)[C@@H](NC(=O)[C@H](CC(C)C)NC(=O)[C@H](CCC(=O)O)NC(=O)[C@H](CC(=O)O)NC(=O)[C@H](Cc1ccccc1)NC(C)=O)C(C)C)C(=O)N[C@@H](CCC(=O)O)C(=O)N[C@@H](CCCCN)C(=O)N[C@H](C(=O)N[C@@H](CCC(=O)O)C(=O)N[C@@H](CCC(=O)O)C(=O)N[C@H](C(=O)N[C@@H](CC(N)=O)C(=O)N[C@@H](CCCCN)C(=O)N[C@@H](CCCCN)C(=O)N[C@@H](CO)C(=O)N[C@@H](CC(C)C)C(=O)N[C@@H](CCCCN)C(=O)N[C@@H](CC(C)C)C(=O)N[C@@H](CC(C)C)C(=O)N[C@@H](CCC(=O)O)C(=O)N[C@@H](CO)C(=O)N[C@@H](CCC(=O)O)C(=O)N[C@@H](C)C(=O)N[C@@H](C)C(=O)N[C@@H](C)C(=O)N[C@@H](CCCCN)C(=O)N[C@@H](CCCCNC(=O)CCC(=O)OC1CCC2(C)C(=CCC3C2CCC2(C)C(C(C)CCCC(C)C)CCC32)C1)C(N)=O)C(C)C)[C@@H](C)CC` (stereo partly drawn) [Compound 37] (Ac-FDELVNKKIEKIEEVNKKSLKLLESEAAAKK(X1)-NH2), for which the CC50 at 1 day in data set [1] (setting [3]) is 4 µM. The IC50 in data set [2] (setting [4]) is 5230 nM.

`CC[C@H](C)[C@H](NC(=O)[C@H](CCCCN)NC(=O)[C@H](CCCCN)NC(=O)[C@H](CC(N)=O)NC(=O)[C@@H](NC(=O)[C@H](CCC(N)=O)NC(=O)[C@H](CCC(=O)O)NC(=O)[C@H](CC(C)C)NC(=O)[C@H](CO)NC(C)=O)C(C)C)C(=O)N[C@@H](CC(N)=O)C(=O)N[C@@H](CCC(N)=O)C(=O)N[C@@H](CO)C(=O)N[C@@H](CC(C)C)C(=O)N[C@@H](CCCCN)C(=O)N[C@H](C(=O)N[C@@H](CC(N)=O)C(=O)N[C@@H](CCCCN)C(=O)N[C@@H](CCCCN)C(=O)N[C@@H](CO)C(=O)N[C@@H](CC(=O)O)C(=O)N[C@@H](CCCCN)C(=O)N[C@@H](CC(C)C)C(=O)N[C@@H](CC(C)C)C(=O)N[C@@H](CCC(=O)O)C(=O)N[C@@H](CC(N)=O)C(=O)N[C@@H](CCC(=O)O)C(=O)N[C@@H](C)C(=O)N[C@@H](C)C(=O)N[C@@H](C)C(=O)N[C@@H](CCCCN)C(=O)N[C@@H](CCCCNC(=O)CCC(=O)OC1CCC2(C)C(=CCC3C2CCC2(C)C(C(C)CCCC(C)C)CCC32)C1)C(N)=O)C(C)C` (stereo partly drawn) [Compound 33] (Ac-SLEQVNKKINQSLKVNKKSDKLLENEAAAKK(X1)-NH2): the CC50 at 1 day in data set [1] (setting [3]) was more than 8 µM. For the same molecule, the IC50 in data set [2] (setting [4]) is 5040 nM.

For `CC[C@H](C)[C@H](NC(=O)[C@H](C)NC(=O)[C@H](C)NC(=O)[C@H](CC(C)C)NC(=O)[C@H](CO)NC(=O)[C@H](CCC(N)=O)NC(=O)[C@H](CC(N)=O)NC(=O)[C@@H](NC(=O)[C@H](CCCCN)NC(=O)[C@H](CCC(=O)O)NC(=O)[C@H](CC(N)=O)NC(=O)[C@@H](NC(=O)[C@H](CCC(N)=O)NC(=O)[C@H](CO)NC(=O)[C@@H](NC(=O)[C@H](CO)NC(=O)[C@H](C)NC(=O)[C@H](CC(=O)O)NC(=O)[C@H](Cc1ccccc1)NC(=O)[C@H](CCC(=O)O)NC(=O)[C@H](CC(=O)O)NC(=O)[C@H](CO)NC(=O)[C@@H]1CCCN1C(=O)[C@H](Cc1ccccc1)NC(=O)[C@@H](NC(C)=O)C(C)C)[C@@H](C)CC)C(C)C)[C@@H](C)CC)C(=O)N[C@@H](CCCNC(=N)N)C(=O)N[C@@H](CCCCN)C(=O)N[C@@H](CO)C(=O)N[C@@H](CC(=O)O)C(=O)N[C@@H](CCC(=O)O)C(=O)N[C@@H](CC(C)C)C(=O)N[C@@H](CC(C)C)C(=O)N[C@@H](Cc1c[nH]cn1)C(=O)N[C@@H](CC(N)=O)C(=O)N[C@H](C(N)=O)C(C)C` [Positive polypeptide 6, reference compound] (Ac-VFPSDEFDASISQVNEKINQSLAAIRKSDELLHNV-NH2), the CC50 at 1 day in data set [1] (setting [3]) is more than 10 µM. The IC50 in data set [2] (setting [4]) is more than 300 nM.
